# Tests used:
# Type in all cases: in vivo
# [1] = system: Coding moth, Cydia pomonella
# Source text: Coding moth, Cydia pomonella—onate
# larvae Bioassay by diet incorporation; Mortality assessment 2 days after treatment a.i. refers to active ingredient
# (§1) LC stands for “Lethal Concentration”. LC values refer to the concentration of a chemical required to kill a certain proportion of a population of pests. The concentration of the chemical that kills 50 percent of the pests during the observation period is the LC50 value and a concentration that kills 90 percent of a population is LC90, LD stands for “Lethal Dose”. LD50 is the amount of an ingested substance that kills 50 percent of a test sample and […] is the lethal dose that kills 90 percent of the test sample. […] In example 1, approximately 4 times less thiocyclam hydrochloride was ingested by the moths at LC50 compared to cartap and approximately 9 times less at LC90 compared to cartap. […] In example 7, all three insecticides performed similarly to eliminate the aphids on radish plants. […] The use of the thiocyclam hydrochloride composition embodiments is in no way restricted to these genera, but also extends in the same manner to other insects and other crops.
# [2] = system: Soybean looper, Chrysodeixis includens; test: Soybean looper bioassay by diet surface incorporation, mortality; conditions: for LC50: Chrysodeixis includens, 72 h, 3rd larval stage, diet surface incorporation, mortality 3 days after treatment (D + 3), read-out: LC50 (μg of a.i/ml of diet)
# Source text: Soybean looper, Chrysodeixis includens—3rd larval stage
# Bioassay by diet surface incorporation Mortality assessment 3 days after treatment a.i. refers to active ingredient
# as §1
# Aphids, Myzus persicae = test: Aphid larvae on radish, boom sprayer application (IRAC n°019 adapted), mortality; conditions: for LD50 (g a.iJha) / LD90 (g al./ha): mortality 3 days after application (D + 3); for LD50 (g al./ha) / LD90 (g alJha): mortality 4 days after application (D + 4)
# Source text: Aphids, Myzus persicae—larvae
# Study based on IRAC n°019 methods, application method adapted Plant: radish Application on petri dish with larvae with a boom sprayer apparatus Assessment of mortality 3 and 4 days after application a.i. refers to active ingredient
# as §1
# [3] = system: White flies, Trialeurodes vaporarium; test: White fly larvae on bean, boom sprayer application (IRAC n°015 adapted), mortality; conditions: for LD50 (g al/ha) / LD90 (g a.i/ha): mortality 9 days after application (D + 9); for LD50 (g a.i./ha) / LD90 (g a.i./ha): mortality 14 days after application (D + 14)
# Source text: White flies, Trialeurodes vaporarium—larvae
# Study based on IRAC n°015 methods, stage and application method adapted Plant: bean Application: On the petri dish with larvae with a boom sprayer apparatus Assessment of mortality at 7, 9 and 14 days after application a.i. refers to active ingredient
# as §1
Structure (SMILES),"times less ingested by the moths at LC50 compared to cartap ([1]; compared to cartap, LC50)","times less at LC90 compared to cartap ([1]; compared to cartap, LC90)",LC50 and LC90 compared to thiocyclam oxalate ([1]; compared to thiocyclam oxalate),LC50 [2] [µg/mL],"LC50 achieved with times less than cartap ([2]; compared to cartap, LC50)","LC90 compared to the concentration of cartap ([2]; compared to cartap, LC90)","LC50 achieved with times less than thiocyclam oxalate ([2]; compared to thiocyclam oxalate, LC50)","LC90 compared to thiocyclam oxalate ([2]; compared to thiocyclam oxalate, LC90)","LD50 (g a.iJha) (Aphids, Myzus persicae)","LD90 (g al./ha) (Aphids, Myzus persicae)","LD50 (g al./ha) (Aphids, Myzus persicae)","LD90 (g alJha) (Aphids, Myzus persicae)",LD90 compared to cartap ([3]; days 7 and 9),"LD90 (g ai./ha) ([3]; larvae, bean, mortality 7 days after application (D + 7))","LD50 (g al/ha) ([3]; larvae, bean)","LD90 (g a.i/ha) ([3]; larvae, bean)","LD50 (g a.i./ha) ([3]; larvae, bean)","LD90 (g a.i./ha) ([3]; larvae, bean)"
"CN(C)C1CSSSC1.Cl [Thiocyclam HCl, N,N-dimethyl-1,2,3-trithian-5-ylamine hydrochloride]",approximately 4 times,approximately 9 times,significantly lower concentrations,8.99,approximately 6 times,more than three times lower,approximately 20 times,orders of magnitude smaller,12.04,30.51,7.66,27.07,lower application concentration compared to cartap,"1,899 g ai./ha",2.23,"4,905 g a.i/ha",0.82,"7,910 g a.i./ha"
"CN(C)C(CSC(N)=O)CSC(N)=O [Cartap, reference compound]",,,,53.1,,,,,<18.18,36.70,<18.18,16,,,15.6,"4,566.3 g a.i/ha",10.4,910.4 g a.i./ha

# From patent publication US20210321613A1, “Process for Preparation of Thiocyclam Base and Salt” (ARYSTA L[…], priority 2018, published 2021)
